# Assay results reported in patent publication US20050233974A1, “Treating infectious diseases using ice inhibitors” (priority 2003, published 2005).
# Tests used:
# [1] = test system: P. aeruginosa strain 19660; test: corneal infection model, P. aeruginosa ATCC strain 19660; type: in vivo, B6 mice
# Protocol: Eight week old female B6 mice (The Jackson Laboratory, Bar Harbor, Me.) were used in these experiments. The left cornea of each anesthetized mouse was scarified with three parallel 1 mm incisions using a sterile 25⅝ gauge needle under a stereoscopic microscope. […] Eyes were examined macroscopically at 1 day post-infection (p.i.) and at times described below to ensure that all mice were similarly infected and to monitor the course of disease. All animals were treated humanely and in full compliance with the Association for Research in Vision and Ophthalmology resolution on usage and treatment of animals in research.
# Worth, Tex.) begun at 18 h p.i. and then 3×/day for 7 days. Initiation of ICE inhibitor therapy at 18 h p.i. was chosen to test experimentally in order to provide more clinically relevant data. In addition, by this time point, it would be expected that a patient would notice ocular symptoms such as haziness, discomfort and pain and would seek care.
# Mice (n=5/group) were color coded and examined in masked fashion by two independent observers at 1, 3, 5 and 7 days p.i. to grade the severity of disease after P. aeruginosa infection.
# The samples were subjected to three freeze-thaw cycles and then centrifuged at 14,000 rpm for 20 min. […] The change in absorbance at 460 nm was continuously monitored for 5 min. The results were expressed as units of MPO/cornea.
# For this, individual corneas were homogenized in sterile PBS and aliquots (100 μl) of serial dilutions were plated onto Pseudomonas isolation agar (Difco, Detroit, Mich.) plates in triplicate. Plates were incubated for 24 h at 37° C. Results were expressed as log10 number of CFU/cornea±SEM.
# Corneas (n=5/group) were removed at 7 days p.i. and immediately stored at −70° C. Before analysis, individual corneas were homogenized in 0.1% Tween 20-PBS with a glass Kontes pestle (Fisher, Itasca, Ill.) centrifuged at 5000×g for 10 minutes at 4° C., and supernatants were used to quantify IL-1β and MIP-2 proteins. Results are reported as pg/ml.
# The change in clinical score with time within a group was tested by the Friedman two-way analysis of variance by ranks. The difference in clinical score at each experimental time point between the ICE inhibitor and placebo treated B6 mice was tested by the Mann-Whitney U test. An unpaired, two-tailed Student's t-test was used to determine statistical significance for data from MPO assay, bacterial counts and ELISA analyses between treated and control groups. Mean differences were considered significant at P≦0.05. Experiments were repeated at least twice to ensure reproducibility and representative data from a single experiment are shown.
# [2] = test system: Pseudomonas isolates resistant to ciprofloxacin; conditions: 22 ciprofloxacin-resistant isolates of 141 culture-proven cases; cited from earlier work
smiles,measurement,setting,value
O=C(O)c1cn(C2CC2)c2cc(N3CCNCC3)c(F)cc2c1=O [ciprofloxacin],histopathological examination of eyes,[1]; 7 days p.i.,heavier inflammatory cells infiltrate in the anterior chamber and adherent to the corneal endothelium
same,viable bacteria in cornea (plate counts),"[1]; 7 days p.i., ICE inhibitor vs. placebo (P=0.02)",No bacterial colonies were isolated
same,protein levels of MIP-2 in cornea (ELISA),"[1]; 7 days p.i., ICE inhibitor vs. vehicle (P=0.012), with ciprofloxacin vs. vehicle and ciprofloxacin (P=0.04)",markedly reduced
same,protein levels of IL-1β in cornea (ELISA),"[1]; 7 days p.i., ICE inhibitor vs. vehicle (P=0.023), with ciprofloxacin vs. vehicle and ciprofloxacin (P=0.036)",markedly reduced
same,slit lamp microscopy of cornea,[1]; day 7 p.i.,heavier cellular infiltration in the cornea as well as in the anterior chamber
same,mean MIC,[2],43 µg/mL
